Literature values as cited in US11564907B2, “Methods and compositions for the treatment of retinopathy and other ocular diseases” (Lankenau Institute for Medical Research, priority 2014, dated 2023).

System: allogeneic mouse concepti
Conditions: pregnant mice; Munn et al. (1998), Mellor et al. (2001)

Cn1cc(C[C@H](N)C(=O)O)c2ccccc21 [1-methyl-tryptophan]
rejection of allogeneic mouse concepti: could elicit T cell-dependent rejection of allogeneic mouse concepti
